The test system of one data set is SARS-COV-2. The data set can be described thus: microbe, parasite or virus in culture. The class given is cell-based. The following applies: for SARS-CoV-2 infectivity of VERO cells: at concentrations which were not cytotoxic.
The nature of data set [1]: Nebulized anticoagulants in preclinical models for lung injury. It is filed as in vivo. From the text: Nebulized anticoagulants attenuate pulmonary coagulopathy in preclinical studies using various models for lung injury. Effects on inflammation are less consistent.
The conditions of data set [2]: compared with controls. From the text: Inhalation injury is a major cause of morbidity and mortality in patients with burns. Presence of airways injury adds to the need of fluid supplementation, increases risk of pulmonary complications. Due to many mechanisms involved in pathophysiology the treatment is complex. Among them the formation of fibrin casts inside airways constitutes a prominent element. The material residing in tracheobronchial tree causes ventilation-perfusion mismatch, complicates mechanical ventilation, provides a medium for bacterial growth. Inhaled anticoagulation regimens employing heparin in management of inhalation injury are tested. Simultaneously safety, especially in connection with possible bleeding risk, is measured.
Data are collected in patients receiving nebulized heparin and in historical controls. Data is analyzed separately with 1) all subjects included and 2) with subjects who died/were discharged on the ventilator excluded.

Data set [3] can be described thus: Nebulized heparin in patients with pulmonary infection or lung injury (Example 6). The class given is in vivo. From the text:
Nebulized heparin also affects various physiologic parameters and other outcomes, in particular during pulmonary infection and inhalation trauma.
Reduction of pulmonary coagulopathy at dosages ≥400,000 U/day heparin is observed.
A single dosage of nebulized heparin prior to cardiopulmonary bypass surgery decreases atelectasis and improves CO2 elimination directly after the operation. Nebulized heparin increases the number of ventilator-free days following administration.

The test system of data set [4] is virus that contain PBSC sequences. To be noted: in vitro; cited from earlier work.
Data set [5] in a line: Phase 1 clinical study of nebulized heparin in volunteers (Example 4). The method, then:
This example describes the safety and efficacy of nebulized heparin and NAC in normal subjects. A Phase 1 clinical study of nebulized heparin is conducted to investigate the safety of increasing doses of a well-defined lower respiratory tract (LRT) dose of inhaled heparin with regard to pulmonary function and coagulation. Ten volunteers inhale heparin from Sidestream jet nebulizers loaded with 100,000, 200,000, 300,000 or 400,000 International Units (ID) of heparin.

For data set [6] the following is noted: aqueous solution at physiologic pH; cited from earlier work.
Another data set deals with VERO cells. Briefly: Non-virus related cytotoxicity in VERO cells by light microscopy. It is filed as cell-based. To be noted: at the inhibiting concentrations (LMWH 125 μM, N-acetylcysteine 25 mM). The method, then: For experiments in which infectivity was being tested, either VERO cells in media or SARS-COV-2 viral particles were incubated with potential inhibitors for one hour. Then viral particles were added to VERO cells and incubation continued for up to seven days. Cytotoxicity and viral-induced cytopathological effects were examined by light microscopy.
In order to test if AT-H201 had antiviral activity against SARS-COV-2 the standard VERO cells assay was performed. Test compounds were incubated either with the virus, to simulate antibody-like surface binding, or with the cells, to simulate either cell surface changes or to act intracellularly. Serial dilutions were conducted and the cytopathic effect (CPE) was observed by microscopy. Non-virus related cytotoxicity, if present was also noted.

The next data set concerns ciliary motility. The following applies: cited from earlier work.
Setting [7] is: nebulized, presence of pulmonary infection or lung injury.

“Also recorded” adds a separate entry of the source.

As for heparin, the “SARS-CoV-2 infectivity of VERO cells” value with SARS-COV-2 was “inhibited”. The systemic coagulation entry in data set [1] is “reduce”. In data set [2], the 28-day mortality result is “no differences”, the hospitalization length result is “no differences”, the “lung injury score during the first 7 days post injury” value was “no differences” and the ventilator-associated pneumonia rate entry was “no differences”. In addition, the bleeding incidences result in data set [3] (at dosages ≥100,000 U) is listed as “without affecting”. In addition, in [3] (nebulized), the “dosages at which reduction of pulmonary coagulopathy is observed” value is listed as ≥ 400,000 U/day, the “dosages at which systemic coagulation is affected” value is on record as ≥ 100,000 U, the mortality result is “does not increase” and the “number of ventilator-free days” value was “increases”. Further, in data set [3] (nebulized), the “physiological parameters, such as arterial oxygenation or pulmonary compliance” value is “does not affect”; the systemic bleeding entry is reported as “does not cause; also recorded: does not result in differences”; the systemic coagulation result is given as “affects”. In data set [3] (setting [7]), the “anticoagulant effect in the lungs” value is given as “has an anticoagulant effect” and the pulmonary inflammation result is on record as “inhibits”. Moreover, in [3] (single nebulized dosage prior to cardiopulmonary bypass surgery), the atelectasis result was “decreases”. Moreover, the CO2 elimination entry in data set [3] (single nebulized dosage prior to cardiopulmonary bypass surgery, directly after the operation) is “improves”. Further, in [4], the “infectivity of virus that contain PBSC sequences” value was “blocks infectivity”. For the same compound, the “Peak anti-Xa activity” value in [5] (6 h after inhalation of 400,000 ID heparin) stood at 0.113 ID/mL. In [5] (6 h after inhalation of 400,000 ID heparin (p=0.05)), this compound had an APTT maximum of 1.03. Besides, the “anti-Xa compared to baseline values” in data set [5] (after 200,000, 300,000, and 400,000 ID heparin) was “increases”. Also, in data set [5] (delivery of 32,000 IU to the lower respiratory tract), the safety of inhalation entry is listed as “can safely be inhaled”. The “area under the curve of the anti-Xa activity” value in data set [5] (inhaled, 100,000-400,000 IU) is “increase with increasing doses”. Moreover, the pulmonary function result in [5] (inhaled, 100,000-400,000 IU loaded in nebulizer) was “did not affect”.

Turning to `CCN(CC)/[N+]([O-])=N/O.CCNCC` [diethylamine/NO], in [6], the “rate of NO release” value was below 3 min.

As for enoxaparin [LMWH], the “inhibition of SARS-COV-2 infectivity” value in the data set on SARS-COV-2 (at 125 μM, SARS-COV-2 incubated with compound before VERO cell exposure) is recorded as “complete inhibition”. The “inhibition of viral cytopathic effects / SARS-COV-2 infectivity” value in the data set on SARS-COV-2 (at nanomolar concentrations, incubated with the virus or with the cells) is “completely inhibiting; also recorded: nanomolar efficacy”. Further, in the data set with SARS-COV-2 (either incubated with the virus or incubated with the cells), the inhibition of infectivity entry is “effective”. Moreover, in the data set on VERO cells, the Cytotoxicity entry is listed as “not seen”.

On to `CC(=O)N[C@@H](CS)C(=O)O` [NAC, N-acetylcysteine], for which the inhibition at 25000 µM in the data set on SARS-COV-2 (Severe acute respiratory syndrome coronavirus 2, Vero, at 25 mM, incubation with cells, read-out: Inhibition of Virus Infection) amounted to 100%. Moreover, the inhibiting viral entry result with SARS-COV-2 (at 25 mM) was “effective”. The inhibition of infectivity entry is “completely inhibit” with SARS-COV-2 (at 25 mM, incubated with cells) and “did not inhibit” in the data set with SARS-COV-2 (incubated with SARS-COV-2 (virus)). Moreover, the “SARS-CoV-2 infectivity of VERO cells” value in the data set on SARS-COV-2 is given as “inhibited”. In the data set on VERO cells, the Cytotoxicity entry is given as “not seen”.

On to danaparoid, for which the systemic coagulation entry in [1] is recorded as “reduce”.

As for `NCCN(CCN)/[N+]([O-])=N/O` [diethylenetriamine/NO], the “rate of NO release” value in data set [6] is “approximately 20 hours”.

rhamnolipid: the “effect of limited exposure of tracheal explants” value in the data set with ciliary motility (associated with altered ciliary membranes) was “ciliostasis”.

Turning to “2-alkyl-4-hydroxyquinolines [pyo compound]”, the “concentration producing ciliostasis / inhibiting ciliary motility” value in the data set on ciliary motility was 50 µg/mL.

Turning to `CCN(CCO)CCCC(C)Nc1ccnc2cc(Cl)ccc12` (centres unmarked) [Hydroxychloroquine, hydroxychloroquine], the inhibition at 16 µM in the data set on SARS-COV-2 (Severe acute respiratory syndrome coronavirus 2, Vero, at 16 μM, incubation with cells, read-out: Inhibition of Virus Infection) was 100%.

By inhibition is commonly meant the drop in the measured response relative to a control, in per cent.

(Values after patent publication US12576103B2 (priority 2020, dated 2026).)
